This note sets out measurements from PubChem BioAssay (NCI).

Holding throughout (test): inhibition of tumour cell growth, NCI panel, 48 h
The test system of assay [1] is CAKI-1 renal.
Assay [2] relates to CCRF-CEM leukemia.
Assay [3] has as its system EKVX NSCLC.
Assay [4] has as its system HOP-62 NSCLC.
Assay [5] deals with HT29 colon.
For assay [6], the system named is K-562 leukemia.
The subject of assay [7] is OVCAR-3 ovarian.
Assay [8] deals with OVCAR-5 ovarian.
In assay [9] the test system is SF-539 CNS.
Assay [10] relates to SN12C renal.
In assay [11] the test system is SNB-19 CNS.
Assay [12] deals with SR leukemia.
Assay [13] deals with SW-620 colon.
In assay [14] the test system is TK-10 renal.
The test system of assay [15] is U251 CNS.
For assay [16], the system named is MCF7 breast.
Assay [17] has as its system PC-3 prostate.
The subject of assay [18] is MDA-MB-435.

Each structure is given as a SMILES string.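 A five-concentration, 48-hour dose response in 96-well plates underlies each endpoint, interpolated linearly between surrounding concentrations. TGI denotes the concentration required for complete inhibition of growth.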

In the case of `C/C(=N\NS(=O)(=O)c1ccc(C)cc1)C(CN1CCOCC1)C(c1ccccc1)c1c(O)c2ccccc2oc1=O` (configuration not stated), the TGI in assay [1], in assay [2], in assay [3], in assay [4], in assay [5] and in [6] was > 100 µM in each case. For the same molecule, the TGI was > 100 µM in assay [7]; > 100 µM in assay [8]; > 100 µM in assay [9]; > 100 µM in [10]; > 100 µM in assay [11]; 56.2 µM in [12]. Moreover, the TGI in assay [13], in assay [14] and in assay [15] was > 100 µM each time.

With `CCN1CCC(O)(c2ccc(C)cc2)C(C(=O)c2ccc(C)cc2)C1` (configuration not stated), the TGI in assay [1] was 31.3 µM; in [2] it was 56 µM; in [3], 36.1 µM; in [4], > 100 µM; in assay [5] it was 36.9 µM; in assay [6] it was > 100 µM. In addition, the TGI in assay [7] is 40.1 µM; in assay [8] it was 47.4 µM; in assay [9], > 59.1 µM; in assay [10] it was 19.8 µM; in assay [11] it was > 100 µM; in assay [12], 50.9 µM. For the same molecule, the TGI is 31.8 µM in assay [13], > 61 µM in assay [14] and > 83.9 µM in assay [15].

On to `Cc1nc2c(n1CCO)C(=O)c1ccccc1C2=O`, for which the TGI in assay [2] is > 100 µM; in assay [3] it was > 100 µM; in [4] it was 74.4 µM; in [5] it was > 100 µM; in assay [6] it was 58.3 µM; in assay [7] it was 76.2 µM. Moreover, the TGI is 88.9 µM in [9]; > 100 µM in [10]; > 100 µM in assay [11]; > 100 µM in [12]; > 100 µM in [13]; > 100 µM in assay [14]. This molecule registered a TGI in assay [15] of 91.8 µM.

`COc1cc(C2c3cc4c(cc3OC(NC3CCCCC3)C2C)OCO4)cc(OC)c1OC` (configuration not stated): the TGI in [1] was 2.75 µM; in assay [2], > 100 µM; in assay [3] it was > 100 µM; in assay [4], > 64.3 µM; in [5] it was 25.6 µM; in assay [6], > 21.5 µM. Further, the TGI is > 100 µM in assay [16]; 0.929 µM in [7]; > 100 µM in assay [8]; > 28.8 µM in assay [17]; 1.4 µM in assay [9]; > 41.9 µM in assay [10]. Also, the TGI is > 100 µM in assay [11], > 55.7 µM in assay [13], > 68.8 µM in assay [14] and 23.9 µM in [15].

For `Cn1c2ccccc2c2c(-c3ccccc3)[n+]3ccccc3nc21`, the TGI in assay [1] was > 100 µM; in [2], 99.8 µM; in [3], > 100 µM; in [4], 68 µM; in assay [5], > 100 µM; in [6] it was > 100 µM. For the same molecule, the TGI is 36.6 µM in assay [18]; 57.7 µM in assay [7]; > 100 µM in assay [8]; > 100 µM in assay [17]; > 100 µM in [9]; 61.6 µM in [10]. The TGI was > 100 µM in [11]; 60.3 µM in assay [12]; 86.9 µM in [13]; 85 µM in [14]; 64.7 µM in assay [15].

With `CNC(=O)CN(CC(=O)NC)C(=O)NC`, the TGI in assay [1], in assay [2], in assay [3], in assay [4], in [5] and in assay [6] was > 100 µM in each case. Besides, the TGI in [7], in assay [8], in [9], in [11], in assay [12] and in assay [13] was > 100 µM throughout. Besides, the TGI in assay [14] and in assay [15] was > 100 µM throughout.

As to `OC12c3ccccc3C1(N1CCOCC1)CCCCC21OCCCO1` (configuration not stated), the TGI in assay [1], in assay [2], in assay [4], in [5], in assay [6] and in [7] was > 100 µM each time. For the same molecule, the TGI in assay [8], in assay [9], in assay [10], in [11], in [14] and in assay [15] was > 100 µM each time.

Consider `COC(=O)CCCN(C)c1n[nH]c(N)n1`, for which the TGI in assay [2], in [3], in assay [4], in assay [5], in assay [6] and in [7] was > 100 µM each time. For the same molecule, the TGI in [8], in assay [9], in assay [10], in [11], in [12] and in assay [13] was > 100 µM each time. In addition, the TGI in assay [14] and in [15] was > 100 µM in each case.

Consider `O=S1(=O)OCCOS(=O)(=O)C1I`, for which the TGI in [1], in [2], in assay [3], in [4], in assay [5] and in assay [6] was > 100 µM in each case. Moreover, the TGI in assay [7], in assay [9], in [10], in assay [11], in [12] and in assay [13] was > 100 µM in each case. Besides, in assay [14], the TGI was > 100 µM.

Turning to `CN(C)c1ccc(-c2cc(=O)c3cc4c(cc3[nH]2)OCO4)cc1`, the TGI in [2], in [3], in assay [4], in assay [5], in assay [6] and in [7] was > 100 µM in each case. For the same molecule, the TGI in assay [9], in [10], in assay [11], in [12], in assay [13] and in assay [14] was > 100 µM each time. The TGI in [15] is > 100 µM.
